{"source": "patent US9169254B2", "about": "“Spiroimidazolone derivative” (Chugai Seiyaku Kabushiki Kaisha, priority 2009, dated 2015)"}
{"molecular_target": "T1, human PTH1 receptor (Homo sapiens, UniProt Q03431)", "T1 sequence (Q03431 27-593)": "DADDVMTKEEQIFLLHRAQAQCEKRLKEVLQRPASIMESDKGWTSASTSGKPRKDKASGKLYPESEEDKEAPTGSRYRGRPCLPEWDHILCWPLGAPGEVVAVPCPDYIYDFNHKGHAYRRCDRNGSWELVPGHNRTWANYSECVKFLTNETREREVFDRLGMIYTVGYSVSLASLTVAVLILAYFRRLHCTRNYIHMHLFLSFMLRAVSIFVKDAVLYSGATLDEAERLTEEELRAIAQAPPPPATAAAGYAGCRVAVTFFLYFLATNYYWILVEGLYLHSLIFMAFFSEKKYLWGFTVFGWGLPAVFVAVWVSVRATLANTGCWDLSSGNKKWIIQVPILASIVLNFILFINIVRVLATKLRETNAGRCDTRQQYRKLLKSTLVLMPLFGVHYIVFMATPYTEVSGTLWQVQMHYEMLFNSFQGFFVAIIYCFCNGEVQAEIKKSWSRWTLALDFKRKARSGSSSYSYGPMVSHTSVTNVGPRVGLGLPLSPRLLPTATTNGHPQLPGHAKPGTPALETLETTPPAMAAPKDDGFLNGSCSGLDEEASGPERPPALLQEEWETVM", "experiment": "In vitro cAMP signal activity in HKRK-B7 cells (LLC-PK1 cells overexpressing the human PTH1 receptor)", "format": "cell-based", "conditions": "HKRK-B7 cells; compound at 1×10^−3 M; cAMP produced as percentage of that produced by hPTH(1-34) at 100 nM", "units": {"cAMP production activity (%)": "%"}}
{"smiles": "CCOCc1cc(NC(C)=O)ccc1/C=C/S(=O)(=O)N1CCC2(CC1)N=C(C1CCC(C)CC1)NC2=O", "note": "(centres unmarked) [Compound 576, N-(3-ethoxymethyl-4-{(E)-2-[2-(4-methyl-cyclohexyl)-4-oxo-1,3,8-triaza-spiro[4.5]dec-1-ene-8-sulfonyl]-vinyl}-phenyl)-acetamide]", "cAMP production activity (%)": 95}
{"smiles": "Cc1cc(N2COCC2=O)ccc1/C=C/S(=O)(=O)N1CCC2(CC1)N=C(C1CCC(C)CC1)NC2=O", "note": "(centres unmarked) [Compound 577, 2-(4-methyl-cyclohexyl)-8-{(E)-2-[2-methyl-4-(4-oxo-oxazolidin-3-yl)-phenyl]-ethenesulfonyl}-1,3,8-triaza-spiro[4.5]dec-1-en-4-one]", "cAMP production activity (%)": 74}
{"smiles": "Cc1cc(N2CCN(C(=O)OC(C)(C)C)CC2=O)ccc1/C=C/S(=O)(=O)N1CCC2(CC1)N=C(C1CCC(C)CC1)NC2=O", "note": "(centres unmarked) [Compound 578, 4-(3-methyl-4-{(E)-2-[2-(4-methyl-cyclohexyl)-4-oxo-1,3,8-triaza-spiro[4.5]dec-1-ene-8-sulfonyl]-vinyl}-phenyl)-3-oxo-piperazine-1-carboxylic acid tert-butyl ester]", "cAMP production activity (%)": 13}
{"smiles": "Cc1cc(N2C(=O)OCC2C)ccc1/C=C/S(=O)(=O)N1CCC2(CC1)N=C(C1CCC(C)CC1)NC2=O", "note": "(centres unmarked) [Compound 579, 2-(4-methyl-cyclohexyl)-8-{(E)-2-[2-methyl-4-(4-methyl-2-oxo-oxazolidin-3-yl)-phenyl]-ethenesulfonyl}-1,3,8-triaza-spiro[4.5]dec-1-en-4-one]", "cAMP production activity (%)": 55}
{"smiles": "Cc1cc(N2OCCC2=O)ccc1/C=C/S(=O)(=O)N1CCC2(CC1)N=C(C1CCC(C)CC1)NC2=O", "note": "(centres unmarked) [Compound 580, 2-(4-methyl-cyclohexyl)-8-{(E)-2-[2-methyl-4-(3-oxo-isoxazolidin-2-yl)-phenyl]-ethenesulfonyl}-1,3,8-triaza-spiro[4.5]dec-1-en-4-one]", "cAMP production activity (%)": 25}
{"smiles": "Cc1cc(N2C(=O)CNC2=O)c(C)cc1/C=C/S(=O)(=O)N1CCC2(CC1)N=C(C1CCC(C)CC1)NC2=O", "note": "(centres unmarked) [Compound 581, 3-(2,5-dimethyl-4-{(E)-2-[2-(4-methyl-cyclohexyl)-4-oxo-1,3,8-triaza-spiro[4.5]dec-1-ene-8-sulfonyl]-vinyl}-phenyl)-imidazolidine-2,4-dione]", "cAMP production activity (%)": 75}
{"smiles": "Cc1cc(N2C(=O)NC(C)C2=O)cc(C)c1/C=C/S(=O)(=O)N1CCC2(CC1)N=C(C1CCC(C)CC1)NC2=O", "note": "(centres unmarked) [Compound 582, 3-(3,5-dimethyl-4-{(E)-2-[2-(4-methyl-cyclohexyl)-4-oxo-1,3,8-triaza-spiro[4.5]dec-1-ene-8-sulfonyl]-vinyl}-phenyl)-5-methyl-imidazolidine-2,4-dione]", "cAMP production activity (%)": 104}
{"smiles": "Cc1cc(/C=C/S(=O)(=O)N2CCC3(CC2)N=C(C2CCC(C)CC2)NC3=O)cc(C)c1N1C(=O)CNC1=O", "note": "(centres unmarked) [Compound 583, 3-(2,6-dimethyl-4-{(E)-2-[2-(4-methyl-cyclohexyl)-4-oxo-1,3,8-triaza-spiro[4.5]dec-1-ene-8-sulfonyl]-vinyl}-phenyl)-imidazolidine-2,4-dione]", "cAMP production activity (%)": 85}
{"smiles": "CC(=O)N(C)c1c(C)cc(/C=C/S(=O)(=O)N2CCC3(CC2)N=C(C2CCC(C)CC2)NC3=O)cc1C", "note": "(centres unmarked) [Compound 584, N-(2,6-dimethyl-4-{(E)-2-[2-(4-methyl-cyclohexyl)-4-oxo-1,3,8-triaza-spiro[4.5]dec-1-ene-8-sulfonyl]-vinyl}-phenyl)-N-methyl-acetamide]", "cAMP production activity (%)": 24}
{"smiles": "COc1cccc(/C=C/S(=O)(=O)N2CCC3(CC2)N=C([C@H]2CC[C@H](C)CC2)NC3=O)c1C", "note": "[Compound 585, 8-[(E)-2-(3-methoxy-2-methyl-phenyl)-ethenesulfonyl]-2-(4-methyl-cyclohexyl)-1,3,8-triaza-spiro[4.5]dec-1-en-4-one]", "cAMP production activity (%)": 39}
{"smiles": "Cc1cc(N(C)c2ncc[nH]2)cc(C)c1/C=C/S(=O)(=O)N1CCC2(CC1)N=C(C1CCC(C)CC1)NC2=O", "note": "(centres unmarked) [Compound 586, 8-((E)-2-{4-[(1H-imidazol-2-yl)-methyl-amino]-2,6-dimethyl-phenyl}-ethenesulfonyl)-2-(4-methyl-cyclohexyl)-1,3,8-triaza-spiro[4.5]dec-1-en-4-one]", "cAMP production activity (%)": 82}
{"smiles": "Cc1cc(N2CCC(=O)NC2=O)cc(C)c1/C=C/S(=O)(=O)N1CCC2(CC1)N=C(C1CCC(C)CC1)NC2=O", "note": "(centres unmarked) [Compound 587, 1-(3,5-dimethyl-4-{(E)-2-[2-(4-methyl-cyclohexyl)-4-oxo-1,3,8-triaza-spiro[4.5]dec-1-ene-8-sulfonyl]-vinyl}-phenyl)-dihydro-pyrimidine-2,4-dione]", "cAMP production activity (%)": 53}
{"smiles": "Cc1cc(N2NCCC2=O)ccc1/C=C/S(=O)(=O)N1CCC2(CC1)N=C([C@H]1CC[C@H](C)CC1)NC2=O", "note": "[Compound 588, 2-(4-methyl-cyclohexyl)-8-{(E)-2-[2-methyl-4-(5-oxo-pyrazolidin-1-yl)-phenyl]-ethenesulfonyl}-1,3,8-triaza-spiro[4.5]dec-1-en-4-one]", "cAMP production activity (%)": 77}
{"smiles": "Cc1cc(N2C(=O)NC(COC(C)(C)C)C2=O)cc(C)c1/C=C/S(=O)(=O)N1CCC2(CC1)N=C([C@H]1CC[C@H](C)CC1)NC2=O", "note": "(some centres unmarked) [Compound 589, 5-tert-butoxymethyl-3-(3,5-dimethyl-4-{(E)-2-[2-(4-methyl-cyclohexyl)-4-oxo-1,3,8-triaza-spiro[4.5]dec-1-ene-8-sulfonyl]-vinyl}-phenyl)-imidazolidine-2,4-dione]", "cAMP production activity (%)": 22}
{"smiles": "Cc1cc(S(=O)(=O)NCC(=O)N(C)C)ccc1/C=C/S(=O)(=O)N1CCC2(CC1)N=C(c1cccc(C(F)(F)F)c1)NC2=O", "note": "[Compound 590, N,N-Dimethyl-2-(3-methyl-4-{(E)-2-[4-oxo-2-(3-trifluoromethyl-phenyl)-1,3,8-triaza-spiro[4.5]dec-1-ene-8-sulfonyl]-vinyl}-benzenesulfonylamino)-acetamide]", "cAMP production activity (%)": 70}
{"smiles": "Cc1cc(S(=O)(=O)NCc2cccnc2)ccc1/C=C/S(=O)(=O)N1CCC2(CC1)N=C(c1cccc(C(F)(F)F)c1)NC2=O", "note": "[Compound 591, 3-methyl-4-{(E)-2-[4-oxo-2-(3-trifluoromethyl-phenyl)-1,3,8-triaza-spiro[4.5]dec-1-ene-8-sulfonyl]-vinyl}-N-pyridin-3-ylmethyl-benzenesulfonamide]", "cAMP production activity (%)": 34}
{"smiles": "Cc1cc(S(=O)(=O)NC2CCC(O)CC2)ccc1/C=C/S(=O)(=O)N1CCC2(CC1)N=C(c1cccc(C(F)(F)F)c1)NC2=O", "note": "(centres unmarked) [Compound 592, N-(4-hydroxy-cyclohexyl)-3-methyl-4-{(E)-2-[4-oxo-2-(3-trifluoromethyl-phenyl)-1,3,8-triaza-spiro[4.5]dec-1-ene-8-sulfonyl]-vinyl}-benzenesulfonamide]", "cAMP production activity (%)": 87}
{"smiles": "Cc1cc(S(C)(=O)=O)ccc1/C=C/S(=O)(=O)N1CCC2(CC1)N=C(c1cccc(C(F)(F)F)c1)NC2=O", "note": "[Compound 593, 8-[(E)-2-(4-methanesulfonyl-2-methyl-phenyl)-ethenesulfonyl]-2-(3-trifluoromethyl-phenyl)-1,3,8-triaza-spiro[4.5]dec-1-en-4-one]", "cAMP production activity (%)": 28}
{"smiles": "CC(=O)NS(=O)(=O)c1ccc(/C=C/S(=O)(=O)N2CCC3(CC2)N=C(c2cccc(C(F)(F)F)c2)NC3=O)c(C)c1", "note": "[Compound 594, N-acetyl-3-methyl-4-{(E)-2-[4-oxo-2-(3-trifluoromethyl-phenyl)-1,3,8-triaza-spiro[4.5]dec-1-ene-8-sulfonyl]-vinyl}-benzenesulfonamide]", "cAMP production activity (%)": 69}
{"smiles": "Cc1cc(S(=O)(=O)NC(CO)(CO)CO)ccc1/C=C/S(=O)(=O)N1CCC2(CC1)N=C(c1cccc(C(F)(F)F)c1)NC2=O", "note": "[Compound 595, N-(2-hydroxy-1,1-bis-hydroxymethyl-ethyl)-3-methyl-4-{(E)-2-[4-oxo-2-(3-trifluoromethyl-phenyl)-1,3,8-triaza-spiro[4.5]dec-1-ene-8-sulfonyl]-vinyl}-benzenesulfonamide]", "cAMP production activity (%)": 63}
{"smiles": "Cc1cc(S(=O)(=O)NC2CCN(Cc3ccccc3)CC2)ccc1/C=C/S(=O)(=O)N1CCC2(CC1)N=C(c1cccc(OC(F)(F)F)c1)NC2=O", "note": "[Compound 596, N-(1-Benzyl-piperidin-4-yl)-3-methyl-4-{(E)-2-[4-oxo-2-(3-trifluoromethoxy-phenyl)-1,3,8-triaza-spiro[4.5]dec-1-ene-8-sulfonyl]-vinyl}-benzenesulfonamide]", "cAMP production activity (%)": 40}
{"smiles": "O=C1NC(c2cccc(OC(F)(F)F)c2)=NC12CCN(S(=O)(=O)/C=C/c1ccc3c(ccn3C[C@H](O)CO)c1)CC2", "note": "[Compound 597, 8-{(E)-2-[1-((S)-2,3-dihydroxy-propyl)-1H-indol-5-yl]-ethenesulfonyl}-2-(3-trifluoromethoxy-phenyl)-1,3,8-triaza-spiro[4.5]dec-1-en-4-one]", "cAMP production activity (%)": 51}
{"smiles": "Cc1cc(C(=O)N2CCN(C(C)C)CC2)ccc1/C=C/S(=O)(=O)N1CCC2(CC1)N=C(c1cccc(OC(F)(F)F)c1)NC2=O", "note": "[Compound 598, 8-{(E)-2-[4-(4-isopropyl-piperazine-1-carbonyl)-2-methyl-phenyl]-ethenesulfonyl}-2-(3-trifluoromethoxy-phenyl)-1,3,8-triaza-spiro[4.5]dec-1-en-4-one]", "cAMP production activity (%)": 74}
